Reference: US20220289691A1, “5-AMINO-SUBSTITUTED PYRAZOLES AND TRIAZOLES AS PEST CONTROL AGENTS” (Bayer Aktiengesellschaft, priority 2019, published 2022)

How the values were obtained:
Assay type in all cases: in vivo
Phaedon cochleariae = Phaedon cochleariae spray test; settings: foliar, 168 h, Chinese cabbage leaf discs, after 7 days, read-out: efficacy (beetle larvae killed)
Description: Phaedon cochleariae—Spray Test Solvent: 78.0 parts by weight of acetone • • 1.5 parts by weight of dimethylformamide Emulsifier: alkylaryl polyglycol ether
(§1) To produce a suitable active compound formulation, 1 part by weight of active compound is dissolved using the stated parts by weight of solvent and made up with water containing an emulsifier concentration of 1000 ppm until the desired concentration is attained. To produce further test concentrations, the formulation is diluted with emulsifier-containing water.
Discs of Chinese cabbage leaves (Brassica pekinensis) are sprayed with an active compound formulation of the desired concentration and, after drying, populated with larvae of the mustard beetle (Phaedon cochleariae).
After 7 days, the efficacy in % is determined. 100% means that all the beetle larvae have been killed; 0% means that no beetle larvae have been killed.

Spodoptera frugiperda = Spodoptera frugiperda spray test; settings: foliar, 168 h, maize leaf discs, after 7 days, read-out: efficacy (caterpillars killed)
Outline: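 Compound was dissolved in acetone/dimethylformamide and diluted with water containing 1000 ppm alkylaryl polyglycol ether emulsifier to test concentrations. Maize leaf discs were sprayed, dried and infested with fall armyworm caterpillars. Efficacy (% caterpillars killed) was scored after 7 days.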

Tetranychus urticae = Tetranychus urticae spray test, OP-resistant; settings: 100 g/ha
Description: Tetranychus urticae—Spray Test, OP-Resistant Solvent: 78.0 parts by weight of acetone • • 1.5 parts by weight of dimethylformamide Emulsifier: alkylaryl polyglycol ether
as §1
Discs of bean leaves (Phaseolus vulgaris) infested with all stages of the greenhouse red spider mite (Tetranychus urticae) are sprayed with an active compound formulation of the desired concentration.
After 6 days, the efficacy in % is determined. 100% means that all the spider mites have been killed; 0% means that no spider mites have been killed.

Ctenocephalides felis [1] = test: Ctenocephalides felis oral test; settings: 48 h, 100 ppm in citrated cattle blood, adult cat fleas, after 2 days, read-out: efficacy (kill)
Description: Ctenocephalides felis—Oral Test
(§2) Solvent: Dimethyl Sulfoxide
To produce a suitable active compound formulation, 10 mg of active compound are mixed with 0.5 ml of dimethyl sulfoxide. Dilution with citrated cattle blood gives the desired concentration.
About 20 unfed adult cat fleas (Ctenocephalides felis) are placed into a chamber which is closed at the top and bottom with gauze. A metal cylinder whose bottom end is closed with parafilm is placed onto the chamber. The cylinder contains the blood/active compound formulation, which can be imbibed by the fleas through the parafilm membrane.
After 2 days, the kill in % is determined. 100% means that all of the fleas have been killed; 0% means that none of the fleas have been killed.

Boophilus microplus = Boophilus microplus injection test; settings: 20 μg/animal, injection into engorged adult female cattle ticks, after 7 days
Description: Boophilus microplus—Injection Test
as §2
To produce a suitable active compound formulation, 10 mg of active compound are mixed with 0.5 ml of solvent and the concentrate is diluted to the desired concentration with solvent.
1 μl of the active compound solution is injected into the abdomen of 5 engorged adult female cattle ticks (Boophilus microplus). The animals are transferred into dishes and kept in a climate-controlled room.
Efficacy is assessed after 7 days by laying of fertile eggs. Eggs which are not visibly fertile are stored in a climate-controlled cabinet until the larvae hatch after about 42 days. An efficacy of 100% means that none of the ticks has laid any fertile eggs; 0% means that all the eggs are fertile.

Musca domestica = Musca domestica test; settings: 100 ppm, adult houseflies, after 2 days
Description: as §2
To produce a suitable active compound formulation, 10 mg of active compound are mixed with 0.5 ml of dimethyl sulfoxide, and the concentrate is diluted with water to the desired concentration.
Vessels containing a sponge treated with sugar solution and the desired concentration of active compound formulation are populated with 10 adult houseflies (Musca domestica).
After 2 days, the kill in % is determined. 100% means that all of the flies have been killed; 0% means that none of the flies have been killed.

Nezara viridula = Nezara viridula spray test; settings: 500 g/ha, larvae on barley plants, after 4 days
Description: Nezara viridula—Spray Test Solvent: 78.0 parts by weight of acetone • • 1.5 parts by weight of dimethylformamide Emulsifier: alkylaryl polyglycol ether
as §1
Barley plants (Hordeum vulgare) are sprayed with an active compound formulation of the desired concentration and are infected with larvae of the Southern green shield bug (Nezara viridula).
After 4 days, the efficacy in % is determined. 100% means that all of the shield bugs have been killed; 0% means that none of the shield bugs have been killed.

Myzus persicae = Myzus persicae oral test; settings: 4 ppm, after 5 days
Description: Myzus persicae—Oral Test Solvent: 100 parts by weight of acetone
To produce a suitable active compound formulation, 1 part by weight of active compound is dissolved using the specified parts by weight of solvent and made up with water until the desired concentration is attained.
50 μl of the active compound formulation are transferred into microtitre plates and made up to a final volume of 200 μl with 150 μl of IPL41 insect medium (33%+15% sugar). Subsequently, the plates are sealed with parafilm, which a mixed population of green peach aphids (Myzus persicae) within a second microtitre plate is able to puncture and imbibe the solution through.
After 5 days, the efficacy in % is determined. 100% means that all the aphids have been killed; 0% means that no aphids have been killed.

Ctenocephalides felis [2] = test: Ctenocephalides felis in vitro contact test with adult cat fleas; settings: 5 μg/cm^2 (=500 g of ai/ha), after 48 h, read-out: efficacy (fleas dead or moribund)
Description: Ctenocephalides felis—In Vitro Contact Tests with Adult Cat Fleas
For the coating of the test tubes, 9 mg of active compound are first dissolved in 1 ml of acetone p.a. and then diluted to the desired concentration with acetone p.a. 250 μl of the solution are distributed homogeneously on the inner walls and the base of a 25 ml glass tube by turning and rocking on an orbital shaker (rocking rotation at 30 rpm for 2 h). With 900 ppm of active compound solution and internal surface area 44.7 cm^2, given homogeneous distribution, an area-based dose of 5 μg/cm^2 is achieved.
After the solvent has evaporated off, the tubes are populated with 5-10 adult cat fleas (Ctenocephalides felis), sealed with a perforated plastic lid and incubated in a horizontal position at room temperature and ambient humidity. After 48 h, efficacy is determined. To this end, the tubes are stood upright and the fleas are knocked to the base of the tube. Fleas which remain motionless at the base or move in an uncoordinated manner are considered to be dead or moribund.
100% efficacy means that all the fleas were dead or moribund. 0% efficacy means that no fleas were harmed.

Diabrotica balteata = Diabrotica balteata spray test; settings: 168 h, beetle larvae on wheat, after 7 days, read-out: efficacy (wheat plant growth); for pest or weed control at 500 g/ha: 500 g/ha (=160 μg/cavity); for pest or weed control at 100 g/ha: 100 g/ha (=32 μg/cavity)
Outline: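 Germinated wheat seedlings in agar multiwell plates were sprayed with compound in acetone/DMF with emulsifier-containing water, then infested with 10-20 Diabrotica balteata larvae. After 7 days, efficacy (%) scored by plant growth: 100% equals untreated, uninfested control, 0% no plants grown.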

Row | Compound | pest or weed control at 500 g/ha (Phaedon cochleariae) [%] | pest or weed control at 100 g/ha (Spodoptera frugiperda) [%] | pest or weed control at 500 g/ha (Spodoptera frugiperda) [%] | efficacy (spider mites killed) (Tetranychus urticae; foliar, 144 h) [%] | pest or weed control at 100 g/ha (Phaedon cochleariae) [%] | pest or weed control at 100 ppm (Ctenocephalides felis [1]) [%] | efficacy (laying of fertile eggs) (Boophilus microplus) [%] | efficacy (kill) (Musca domestica) [%] | efficacy (shield bugs killed) (Nezara viridula) [%] | efficacy (aphids killed) (Myzus persicae) [%] | pest or weed control at 5 µg/cm2 (Ctenocephalides felis [2]) [%] | pest or weed control at 125 g/ha (Diabrotica balteata; 125 g/ha (=40 μg/cavity)) [%] | pest or weed control at 500 g/ha (Diabrotica balteata) [%] | pest or weed control at 100 g/ha (Diabrotica balteata) [%] | efficacy (spider mites killed) (Tetranychus urticae; bean leaf discs, all stages, after 6 days) [%]
1 | CCO[C@@H]1[C@@H](OC)[C@H](C)O[C@@H](OC(=O)Nc2ccc(-c3nc(NC(C)=O)n(-c4ccc(OC(F)(F)F)cc4)n3)cc2)[C@@H]1OC [Compound I-001, [(2S,3R,4R,5S,6S)-4-ethoxy-3,5-dimethoxy-6-methyl-tetrahydropyran-2-yl]N-[4-[5-acetamido-1-[4-(trifluoromethoxy)phenyl]-1,2,4-triazol-3-yl]phenyl]carbamate] | 100 | 100 | 100 | 90 | – | – | – | – | – | – | – | – | – | – | –
2 | CCC(=O)Nc1nc(-c2ccc(NC(=O)O[C@@H]3O[C@@H](C)[C@H](OC)[C@@H](OC)[C@H]3OC)cc2)nn1-c1ccc(OC(F)(F)C(F)(F)F)cc1 [Compound I-003] | 100 | 100 | 100 | – | 100 | 100 | 100 | – | – | – | – | – | – | – | –
3 | CCO[C@@H]1[C@@H](OC)[C@H](C)O[C@@H](OC(=O)Nc2ccc(-c3nc(NC(=O)CC)n(-c4ccc(OC(F)(F)C(F)(F)F)cc4)n3)cc2)[C@@H]1OC [Compound I-005] | 100 | 100 | 100 | – | 100 | 100 | 90 | 80 | – | – | – | – | – | – | –
4 | CCO[C@@H]1[C@@H](OC)[C@H](C)O[C@@H](OC(=O)Nc2ccc(-c3nc(NC(C)=O)n(-c4ccc(OC(F)(F)C(F)(F)F)cc4)n3)cc2)[C@@H]1OC [Compound I-006] | 100 | 100 | 100 | 100 | 100 | 95 | – | 80 | – | – | – | – | – | – | –
5 | CCO[C@@H]1[C@@H](OC)[C@H](C)O[C@@H](OC(=O)Nc2ccc(-c3nc(NC(=O)CC)n(-c4ccc(OC(F)(F)F)cc4)n3)cc2)[C@@H]1OC [Compound I-007] | 100 | – | 100 | – | 100 | 90 | 100 | – | – | – | – | – | – | – | –
6 | CNc1nc(-c2ccc(C=NNC(=S)Nc3ccccc3C(C)C)cc2)nn1-c1ccc(OC(F)(F)F)cc1 [Compound I-018, 1-(2-isopropylphenyl)-3-[[4-[5-(methylamino)-1-[4-(trifluoromethoxy)phenyl]-1,2,4-triazol-3-yl]phenyl]methyleneamino]thiourea] | – | 100 | – | – | – | 95 | – | – | 100 | 90 | 80 | 100 | 100 | – | –
7 | CC(C)c1ccccc1NC(=S)NN=Cc1ccc(-c2nc(NC3CSC3)n(-c3ccc(OC(F)(F)F)cc3)n2)cc1 [Compound I-057] | – | 100 | – | – | – | – | – | – | – | 90 | – | – | 100 | 100 | –
8 | CCOCCNc1nc(-c2ccc(C=NNC(=S)Nc3ccccc3C(C)C)cc2)nn1-c1ccc(OC(F)(F)F)cc1 [Compound I-060] | – | 100 | – | – | – | – | – | – | – | – | – | – | 100 | 100 | 90
